As a reminder, the IC50 is the concentration that inhibits the measured activity by half. A low value points to greater potency in that assay.

Chain of human Gal-3 (hGal-3) (P17931 whole entry): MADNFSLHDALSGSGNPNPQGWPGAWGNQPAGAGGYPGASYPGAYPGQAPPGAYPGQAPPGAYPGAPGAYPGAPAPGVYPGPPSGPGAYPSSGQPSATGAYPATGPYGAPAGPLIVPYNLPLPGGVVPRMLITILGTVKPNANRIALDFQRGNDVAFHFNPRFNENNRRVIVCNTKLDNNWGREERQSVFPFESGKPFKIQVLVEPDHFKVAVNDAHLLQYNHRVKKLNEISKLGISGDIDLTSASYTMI

This assay addresses human Gal-3 (hGal-3) (Homo sapiens (Human), UniProt P17931). Description: competitive binding assay: binding of biotinylated hGal-3 to microplate-adsorbed asialofetuin (ASF), spectrophotometric. Conditions: Activity on hGal-3; mean values of several measurements. Summed up:
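Compounds diluted in DMSO competed with biotinylated hGal-3 or hGal-1 (300-1000 ng/mL) for binding to plate-adsorbed asialofetuin for 3 h at 4° C. Bound galectin was detected with streptavidin-peroxidase (80 ng/mL, 1 h, 4° C) and ABTS substrate; IC50 reported as mean of several measurements.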
Take `CO[C@@H]1[C@@H](n2cc(-c3ccc(Cl)c(F)c3F)nn2)[C@@H](O)[C@@H](CO)O[C@H]1C(=O)N(c1cc(Cl)cc(C#N)c1)[C@@H]1CCC[C@H]1O` [Example 1.14.4R, (2R,3R,4S,5R,6R)-4-(4-(4-chloro-2,3-difluorophenyl)-1H-1,2,3-triazol-1-yl)-N-(3-chloro-5-cyanophenyl)-5-hydroxy-N-((1R,2R)-2-hydroxycyclopentyl)-6-(hydroxymethyl)-3-methoxytetrahydro-2H-pyran-2-carboxamide]: the IC50 was 89.8 nM.

Regarding `CO[C@@H]1[C@@H](n2cc(-c3ccc(C)c(F)c3)nn2)[C@@H](O)[C@@H](CO)O[C@H]1C(=O)N(c1cc(C)cc(C#N)c1)[C@H]1CCC[C@@H]1O` [Example 1.13.8, (2R,3R,4S,5R,6R)-N-(3-cyano-5-methylphenyl)-4-(4-(3-fluoro-4-methylphenyl)-1H-1,2,3-triazol-1-yl)-5-hydroxy-N-((1S,2S)-2-hydroxycyclopentyl)-6-(hydroxymethyl)-3-methoxytetrahydro-2H-pyran-2-carboxamide], the IC50 turned out to be 33.2 nM.

`COc1cc(C#N)cc(N(C(=O)[C@@H]2O[C@H](CO)[C@H](O)[C@H](n3cc(-c4cc(F)cc(Br)c4)nn3)[C@H]2OC)[C@@H]2CC[C@H]2O)c1` [Example 2.10.9R, (2R,3R,4S,5R,6R)-4-(4-(3-bromo-5-fluorophenyl)-1H-1,2,3-triazol-1-yl)-N-(3-cyano-5-methoxyphenyl)-5-hydroxy-N-((1R,2R)-2-hydroxycyclobutyl)-6-(hydroxymethyl)-3-methoxytetrahydro-2H-pyran-2-carboxamide] gave an IC50 of 976 nM.

In turn, `CO[C@@H]1[C@@H](n2cc(-c3cc(F)cc(Br)c3)nn2)[C@@H](O)[C@@H](CO)O[C@H]1C(=O)N(c1cc(F)cc(C#N)c1)[C@H]1CCC[C@@H]1O` [Example 1.10.7, (2R,3R,4S,5R,6R)-4-(4-(3-bromo-5-fluorophenyl)-1H-1,2,3-triazol-1-yl)-N-(3-cyano-5-fluorophenyl)-5-hydroxy-N-((1S,2S)-2-hydroxycyclopentyl)-6-(hydroxymethyl)-3-methoxytetrahydro-2H-pyran-2-carboxamide] returned an IC50 of 146 nM.

In turn, `CO[C@@H]1[C@@H](n2cc(-c3ccc(Br)c(F)c3F)nn2)[C@@H](O)[C@@H](CO)O[C@H]1C(=O)N(c1cc(Cl)cc(C#N)c1)[C@H]1CC[C@@H]1O` [Example 2.12.4, (2R,3R,4S,5R,6R)-4-(4-(4-bromo-2,3-difluorophenyl)-1H-1,2,3-triazol-1-yl)-N-(3-chloro-5-cyanophenyl)-5-hydroxy-N-((1S,2S)-2-hydroxycyclobutyl)-6-(hydroxymethyl)-3-methoxytetrahydro-2H-pyran-2-carboxamide] registered an IC50 of 45 nM.

`COc1cc(-c2cn([C@H]3[C@@H](O)[C@@H](CO)O[C@@H](C(=O)N(c4cc(C)cc(Br)c4)[C@@H]4CCC[C@H]4O)[C@@H]3OC)nn2)cc(F)c1F` [Example 1.3.12R, (2R,3R,4S,5R,6R)-N-(3-bromo-5-methylphenyl)-4-(4-(3,4-difluoro-5-methoxyphenyl)-1H-1,2,3-triazol-1-yl)-5-hydroxy-N-((1R,2R)-2-hydroxycyclopentyl)-6-(hydroxymethyl)-3-methoxytetrahydro-2H-pyran-2-carboxamide] yielded an IC50 of 411 nM.

`CO[C@@H]1[C@@H](n2cc(-c3cc(F)c(F)c(F)c3)nn2)[C@@H](O)[C@@H](CO)O[C@H]1C(=O)N(c1cc(Br)cc(C#N)c1)[C@@H]1CC[C@H]1O` [Example 2.1.5R, (2R,3R,4S,5R,6R)-N-(3-bromo-5-cyanophenyl)-5-hydroxy-N-((1R,2R)-2-hydroxycyclobutyl)-6-(hydroxymethyl)-3-methoxy-4-(4-(3,4,5-trifluorophenyl)-1H-1,2,3-triazol-1-yl)tetrahydro-2H-pyran-2-carboxamide] yielded an IC50 of 191 nM.

Values taken from patent publication US20230348442A1, “GALECTIN-3 INHIBITING 2-HYDROXYCYCLOALKANE-1-CARBAMOYL DERIVATIVES” (Idorsia Pharmaceuticals Ltd, priority 2020, published 2023).
